Source: patent US5510240A, “Method of screening a peptide library” (The Arizona Board of Regents, priority 1993, dated 1996)
Where no end group is shown, it is not given here.

Tests used:
anti-v-mos = details: known property of the commercial antibody; cited from earlier work
anti-β-endorphin MAb = assay: bead library screening with biotinylated anti-β-endorphin MAb and streptavidin-alkaline phosphatase; type: binding; details: recycled pentapeptide library, 16 hours
Experimental: Prior to using the same random peptide library to screen with anti-β-endorphin MAb, all the blue beads that had stained for streptavidin-alkaline phosphatase alone were removed. The remaining beads were then treated with 8M guanidine hydrochloride to remove any bound protein. This recycled library was then mixed with biotinylated anti-β-endorphin MAb (anti-β-endorphin, clone 3-E7, was obtained commercially from Boehringer Mannheim, Indianapolis, Ind.) for 16 hours. After extensive washing, a secondary step with streptavidin-alkaline phosphatase was used to trigger the staining reaction for the ELISA. […] Peptide analogues with various carboxyl terminus of these ligand leads were synthesized and their affinity (Ki) was determined using ^3 H!Leu-enkaphalin (New England Nuclear, Boston, Mass.) as the labelled ligand and the unlabelled peptides as the competing ligand (anti-β-endorphin assay, Section 10.1.2, supra).

[1] = UV/VIS irradiation cleavage of ONb linker peptides, HPLC analysis; type: physicochemical; details: in water
Experimental: Each peptide was irradiated for 1 and 3 hours with ultraviolet (UV) and visible (VIS) light in 0.3 ml of water or 3/7 mixture of chloroethanol:dichloromethane. A total of 16+16 experiments were run and assayed.
After exposure the supernatant was filtered off, lyophilized and re-dissolved to equal volumes of MeOH (0.3 ml). The products were analyzed on the HPLC.

[2] = test system: anti-v-mos monoclonal antibody; assay: bead staining with anti-v-mos monoclonal antibody; type: binding, mouse; details: antibody 1 ug/ml; ABTS substrate with H2O2, 15 minutes
Experimental: The long v-mos beads were mixed with a thousand fold excess of the short v-mos beads. Two milliliters of the purified anti-v-mos monoclonal antibody (1 μg/ml) in PBS with 0.1% polyoxyethylenesorbitan monolaurate (TWEEN 20®) was added to the mixture of long and short v-mos beads and incubated at room temperature for one hour with gentle mixing. The beads were then washed for one hour with gentle mixing. The beads were then washed on a small polypropylene disposable column (obtained from Isolab) where the beads were retained by the frit. The beads were then mixed with 2 ml of a secondary antibody at 1:2000 dilution for one hour. After washing, the beads were poured into a polystyrene petri dish and allowed to settle. […]
The beads were washed on a small polypropylene disposable column (obtained from Isolab) which retained the beads on a frit. […] The v-mos beads were readily distinguished.
Approximately 230,000 beads were screened with an anti-v-mos alkaline phosphatase conjugate. […] Twenty-four of these beads were physically selected out and the amino acid sequence of eleven of them was determined. […]

[3] = peptide-bead reduction of nitro blue tetrazolium without exogenous enzyme; type: biochemical; details: absence of exogenous enzyme
Source text: The peptide library was exposed to the chromogenic substrate nitro blue tetrazolium (NBT) chloride in the absence of exogeneous enzyme under conditions conducive to product formation, and positive reacting beads were identified. These beads were selected and sequenced.

streptavidin = target: T1, streptavidin (Streptomyces avidinii, UniProt P22629); assay: biotin inhibition of LHPQF-resin staining by streptavidin-alkaline phosphatase; type: binding
T1 construct: purchased Pierce, Rockford, Ill
Experimental: FIG. 8. […] A: 100 nM; B: 10 nM; C: 1 nM; and D: 0.1 nM biotin. Blank beads (β-Ala-aminocaproic acid-resin) were mixed 1:1 with the LHPQF-resin prior to incubating with streptavidin-alkaline phosphatase to serve as an internal negative control.
The LHPQF-resin was then mixed with streptavidin-alkaline phosphatase in the presence of varying concentration of biotin. […] The inhibition study establishes that the HPQ consensus sequence binds to the biotin-binding site of streptavidin.

T1 sequence (P22629 25-183, species assumed): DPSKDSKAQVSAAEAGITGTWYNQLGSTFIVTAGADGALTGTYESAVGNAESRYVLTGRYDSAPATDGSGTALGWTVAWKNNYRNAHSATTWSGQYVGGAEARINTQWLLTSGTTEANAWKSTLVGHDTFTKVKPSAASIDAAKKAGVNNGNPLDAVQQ

## GSVYKA [short v-mos peptide]
anti-v-mos
  affinity of anti-v-mos antibody: negligible affinity

## YGGLS (not fully specified) [tested with carboxyl terminus OH, NH2, βA-OH, βA-NH2]
anti-β-endorphin MAb
  identification as ligand in anti-β-endorphin MAb bead screening: identified

## Fmoc-Trp-Tyr(OBu^t)-Phe-ONb-βAla-ACA-EDA-PepSyn K (WYFX; Fmoc, OBut, ONb-βAla-ACA-EDA-PepSyn K resin linkage) [peptide i]
[1]
  cleavage products: cleaved to a single product

## Gly-Phe-Gly-Ser-Val-Tyr-aminocaproic acid-β-Ala-resin [PAM resin/v-mos peptide beads]
[2]
  bead color after anti-v-mos antibody and labelled secondary antibody: turned dark green

## YGGFA (not fully specified) [tested with carboxyl terminus OH, NH2, βA-OH, βA-NH2]
anti-β-endorphin MAb
  identification as ligand in anti-β-endorphin MAb bead screening: identified

## YGGFQ (not fully specified) [tested with carboxyl terminus OH, NH2, βA-OH, βA-NH2]
anti-β-endorphin MAb
  identification as ligand in anti-β-endorphin MAb bead screening: identified

## PNNNH (also: bead-bound) [PNNNH-bead]
[3]
  reduction of NBT to dark blue diformazan: capable of reducing NBT to a dark blue diformazan pigment

## YGGLQ (not fully specified) [tested with carboxyl terminus OH, NH2, βA-OH, βA-NH2]
anti-β-endorphin MAb
  identification as ligand in anti-β-endorphin MAb bead screening: identified

## O=C(O)CCCC[C@@H]1SC[C@@H]2NC(=O)N[C@@H]21 [biotin]
streptavidin; FIG. 8, 100, 10, 1 and 0.1 nM biotin
  effect on the staining of LHPQF-resin mimotope beads by streptavidin-alkaline phosphatase: concentration-dependent inhibitory effect
streptavidin; biotin at 0.1 nM
  staining of the LHPQF-resin: no effect
streptavidin; biotin at 1.0 nM
  staining of the LHPQF-resin: partially inhibited
streptavidin; biotin at 10 nM
  staining of the LHPQF-resin: partially inhibited
streptavidin; biotin at 100 nM
  staining of the LHPQF-resin: completely blocked

## YGGMV (not fully specified) [tested with carboxyl terminus OH, NH2, βA-OH, βA-NH2]
anti-β-endorphin MAb
  identification as ligand in anti-β-endorphin MAb bead screening: identified

## YGGFT (not fully specified) [tested with carboxyl terminus OH, NH2, βA-OH, βA-NH2]
anti-β-endorphin MAb
  identification as ligand in anti-β-endorphin MAb bead screening: identified
